Test results from ChEMBL document CHEMBL1141055, “Discovery of novel conformationally restricted diazocan peptidomimetics as inhibitors of interleukin-1beta synthesis” (Bioorg Med Chem Lett, 2005).

Key:
[1] = system: THP-1; test: Inhibition of 1 ug/mL LPS-induced IL1-beta production in human monocytic cells after 4 hrs; assay type: functional, cell-based; conditions: THP-1, 4 h
[2] = target: Caspase-8 (Homo sapiens, UniProt Q14790); test: Inhibition of caspase 8 using fluorogenic substrate and BMG Fluostar plate reader for 30 min at 37 degree C
Chain of Caspase-8 (Q14790 217-374 limits assumed): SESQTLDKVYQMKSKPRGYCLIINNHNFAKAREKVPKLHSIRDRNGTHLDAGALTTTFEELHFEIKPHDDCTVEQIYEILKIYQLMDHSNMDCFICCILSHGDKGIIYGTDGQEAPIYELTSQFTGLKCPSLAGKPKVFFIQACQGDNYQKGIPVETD
Chain of Caspase-8 (Q14790 385-479 limits assumed): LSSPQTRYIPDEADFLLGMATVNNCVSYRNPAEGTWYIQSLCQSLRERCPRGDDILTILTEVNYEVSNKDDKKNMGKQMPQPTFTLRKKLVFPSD

[3] = target: T1, Caspase-1 (Homo sapiens, UniProt P29466); test: Inhibition of caspase-1 using fluorogenic substrate and BMG Fluostar plate reader for 30 min at 37 degree C
T1 sequence (P29466 whole entry): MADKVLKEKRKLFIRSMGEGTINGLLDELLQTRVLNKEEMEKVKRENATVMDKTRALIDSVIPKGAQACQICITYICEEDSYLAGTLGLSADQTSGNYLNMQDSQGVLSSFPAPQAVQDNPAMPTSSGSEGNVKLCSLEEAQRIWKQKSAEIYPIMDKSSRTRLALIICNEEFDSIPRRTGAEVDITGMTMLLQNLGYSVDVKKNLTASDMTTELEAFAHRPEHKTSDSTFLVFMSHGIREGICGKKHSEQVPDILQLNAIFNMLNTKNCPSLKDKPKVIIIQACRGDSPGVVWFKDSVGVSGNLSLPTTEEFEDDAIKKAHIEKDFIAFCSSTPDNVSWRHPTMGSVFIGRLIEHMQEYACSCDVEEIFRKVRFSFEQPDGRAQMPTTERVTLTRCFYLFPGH

[4] = target: T2, Caspase-3 (Homo sapiens, UniProt P42574); test: Inhibition of caspase 3 using fluorogenic substrate and BMG Fluostar plate reader for 30 min at 37 degree C
T2 sequence (P42574 whole entry): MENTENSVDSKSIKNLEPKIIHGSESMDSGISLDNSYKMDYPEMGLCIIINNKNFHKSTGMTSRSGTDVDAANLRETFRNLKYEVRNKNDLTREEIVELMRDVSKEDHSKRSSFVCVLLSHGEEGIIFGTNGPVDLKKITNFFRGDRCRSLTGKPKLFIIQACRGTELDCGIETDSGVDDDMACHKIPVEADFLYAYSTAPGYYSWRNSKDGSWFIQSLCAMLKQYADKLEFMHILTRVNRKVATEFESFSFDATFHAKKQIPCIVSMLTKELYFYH

| IC50 [1] | IC50 [2] | IC50 [3] | IC50 [4] | Compound |
| --- | --- | --- | --- | --- |
| 577 nM |  |  |  | O=C(CN1CCCN(C(=O)C2CCCCC2)C[C@H](NC(=O)c2ccc3ccccc3c2)C1=O)N[C@H]1CC(=O)OC1O (stereo partly specified) |
| 808 nM |  |  |  | O=C(CN1CCCN(C(=O)Cc2ccccc2)C[C@H](NC(=O)c2ccc3ccccc3c2)C1=O)N[C@H]1CC(=O)OC1O (stereo partly specified) |
| 216 nM |  |  |  | CC(=O)N1CCCN(CC(=O)N[C@H]2CC(=O)OC2O)C(=O)[C@@H](NC(=O)c2ccc3ccccc3c2)C1 (stereo partly specified) |
| 1740 nM |  |  |  | O=C(CN1CCCN(C(=O)c2cccc(C(F)(F)F)c2)C[C@H](NC(=O)c2ccc3ccccc3c2)C1=O)N[C@H]1CC(=O)OC1O (stereo partly specified) |
| > 2500 nM |  |  |  | Cc1ccc(Cl)cc1C(=O)N1CCCN(CC(=O)N[C@H]2CC(=O)OC2O)C(=O)[C@@H](NC(=O)c2ccc3ccccc3c2)C1 (stereo partly specified) |
| 219 nM |  |  |  | O=CN1CCCN(CC(=O)N[C@H]2CC(=O)OC2O)C(=O)[C@@H](NC(=O)c2ccc3ccccc3c2)C1 (stereo partly specified) |
| 224 nM | > 10000 nM | 44 nM | > 10000 nM | O=C(CN1CCCN(C(=O)N2CCOCC2)C[C@H](NC(=O)c2ccc3ccccc3c2)C1=O)N[C@H]1CC(=O)OC1O (stereo partly specified) |
| 1020 nM |  |  |  | O=C(CN1CCCN(C(=O)c2ccccc2)C[C@H](NC(=O)c2cccc(C(F)(F)F)c2)C1=O)N[C@H]1CC(=O)OC1O (stereo partly specified) |
| 280 nM | > 10000 nM | 30 nM | > 10000 nM | O=C(CN1CCCN(C(=O)c2ccccc2)C[C@H](NC(=O)c2nccc3ccccc23)C1=O)N[C@H]1CC(=O)OC1O (stereo partly specified) |
| 205 nM | > 10000 nM | 19 nM | > 10000 nM | O=C(CN1CCCN(C(=O)c2ccccc2)C[C@H](NC(=O)c2ccc3ccccc3c2)C1=O)N[C@H]1CC(=O)OC1O (stereo partly specified) |
| 560 nM |  |  |  | O=C(CN1CCCN(C(=O)c2ccccc2)C[C@H](NC(=O)c2cc3ccccc3s2)C1=O)N[C@H]1CC(=O)OC1O (stereo partly specified) |
| 229 nM | > 10000 nM | 15 nM | > 10000 nM | COc1cccc(C(=O)N2CCCN(CC(=O)N[C@H]3CC(=O)OC3O)C(=O)[C@@H](NC(=O)c3ccc4ccccc4c3)C2)c1 (stereo partly specified) |
| 297 nM | > 10000 nM | 22 nM | > 10000 nM | O=C(CN1CCCN(C(=O)c2cccc(F)c2)C[C@H](NC(=O)c2ccc3ccccc3c2)C1=O)N[C@H]1CC(=O)OC1O (stereo partly specified) |
| 246 nM | > 10000 nM | 38 nM | > 10000 nM | COc1ccccc1C(=O)N1CCCN(CC(=O)N[C@H]2CC(=O)OC2O)C(=O)[C@@H](NC(=O)c2ccc3ccccc3c2)C1 (stereo partly specified) |
| 285 nM | > 10000 nM | 24 nM | > 10000 nM | O=C(CN1CCCN(C(=O)N2CCNCC2)C[C@H](NC(=O)c2ccc3ccccc3c2)C1=O)N[C@H]1CC(=O)OC1O (stereo partly specified) |
| 1020 nM |  |  |  | O=C(CN1CCCN(C(=O)c2ccccc2)C[C@H](NC(=O)c2ccccc2)C1=O)N[C@H]1CC(=O)OC1O (stereo partly specified) |
| 1520 nM |  |  |  | O=C(CN1CCCN(C(=O)c2ccccc2C(F)(F)F)C[C@H](NC(=O)c2ccc3ccccc3c2)C1=O)N[C@H]1CC(=O)OC1O (stereo partly specified) |
| 298 nM |  |  |  | Cc1ccc(Cl)cc1C(=O)N[C@H]1CN(C(=O)c2ccccc2)CCCN(CC(=O)N[C@H]2CC(=O)OC2O)C1=O (stereo partly specified) |
| 120 nM |  | 2 nM |  | CCO[C@@H]1OC(=O)C[C@@H]1NC(=O)[C@@H]1CCCN2C(=O)CC[C@H](NC(=O)c3nccc4ccccc34)C(=O)N12 [PRALNACASAN] |
